SMILES strings stand for the structures.

Sequence of CETP (P11597 18-493): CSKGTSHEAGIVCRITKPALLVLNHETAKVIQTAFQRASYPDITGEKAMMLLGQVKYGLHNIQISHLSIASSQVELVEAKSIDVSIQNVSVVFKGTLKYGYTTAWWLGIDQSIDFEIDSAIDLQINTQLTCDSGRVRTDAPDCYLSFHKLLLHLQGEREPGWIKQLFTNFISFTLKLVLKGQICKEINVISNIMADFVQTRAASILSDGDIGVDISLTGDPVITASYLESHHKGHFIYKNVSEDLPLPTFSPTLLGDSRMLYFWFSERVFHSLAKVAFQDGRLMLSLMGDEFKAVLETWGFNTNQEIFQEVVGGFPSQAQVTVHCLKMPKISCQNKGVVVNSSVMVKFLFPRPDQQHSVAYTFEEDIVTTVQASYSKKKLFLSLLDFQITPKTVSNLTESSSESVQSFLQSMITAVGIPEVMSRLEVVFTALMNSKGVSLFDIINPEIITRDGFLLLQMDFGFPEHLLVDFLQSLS

The target of the first experiment is CETP (Homo sapiens (Human), UniProt P11597). Briefly: Scintillation Proximity Assay (SPA) for CETP activity. Type of experiment: biochemical. The note with it: Table 1, read-out: IC50. Here is the method:
Protocol: Scintillation Proximity Assay (SPA) for CETP Activity
First, low density lipoprotein (LDL) (Meridian) was biotinylated by incubating LDL with biotin for 1 hour on ice, after which it was dialyzed to remove free biotin. Then compounds at varying concentrations were incubated with 15 nM CETP (reagent production group, In Vitro Pharmacology, MRL Rahway) and 50 ug/ml of the biotinylated LDL in 50 mM HEPES, 150 mM NaCl, pH 7.4, for 1 hour at 37° C. The reaction was started by adding 3H-cholesterol ester high density lipoprotein (HDL) (American Radiochemicals Corp) at a concentration of ˜0.6 nM. The reaction proceeded for 2 hours at 37° C., after which time it was quenched by the addition of 12% acetic acid. PVT streptavadin-coated scintillation proximity beads, which had been brought to room temperature, were then added at a concentration of 4 mg/ml. The assay was then mixed and counted after one half hour in a Microbeta plate reader.
For orientation: SPA uses beads or plates that emit light when radiolabelled molecules are held near them.
On to `O[C@H](CN1c2ccccc2N(CC2CCCCC2)C[C@H]1c1cccc(C(F)(F)F)c1)C(F)(F)F` [Example 37, (R)-3-((R)-4-(cyclohexylmethyl)-2-(3-(trifluoromethyl)phenyl)-3,4-dihydroquinoxalin-1(2H)-yl)-1,1,1-trifluoro propan-2-ol], for which the concentration for half-maximal inhibition (IC50) worked out at 1270 nM.
Still for that read-out and setting: the result for `O[C@H](CN1c2ccccc2N(Cc2cc(Cl)cc(Cl)c2)C[C@H]1c1ccccc1)C(F)(F)F` [Example 31, (R)-3-((R)-4-(3,5-dichlorobenzyl)-2-phenyl-3,4-dihydroquinoxalin-1(2H)-yl)-1,1,1-trifluoropropan-2-ol] reads 2760 nM; that for `O[C@H](CN1c2ccccc2N(C2CCCc3ccccc32)CC1c1cccc(C(F)(F)F)c1)C(F)(F)F` (stereo partly drawn) [Example 57, (2R)-1,1,1-trifluoro-3(4-(1,2,3,4-tetrahydronaphthalen-1-yl)-2-(3-trifluoromethyl)phenyl)-3,4-dihydroquinoxalin-1(2H)-yl-propan-2-ol], 12 nM.
In the case of `O[C@H](CN1c2ccccc2N(C2C=Cc3ccccc32)CC1c1cccc(OC(F)(F)C(F)F)c1)C(F)(F)F` (stereo partly drawn) [Example 56, (2R)-3(4-(1H-inden-1-yl))-2-(3-(1,1,2,2,- tetrafluoroethoxy)phenyl)-3,4-dihydroquinoxalin-1(2H)-yl-1,1,1-trifluoropropan-2-ol], the IC50 worked out at 11 nM.
Take `O[C@H](CN1c2ccccc2N(Cc2ccsc2)C[C@H]1c1cccc(C(F)(F)F)c1)C(F)(F)F` [Example 38, (R)-3-((R)-4-(thiophenyl-3-ylmethyl)-2-(3-(trifluoromethyl)phenyl)3,4-dihydroquinoxalin-1(2H)-yl)-1,1,1-trifluoropropan-2-ol]: the IC50 worked out at 461 nM.
The same measure, in the same setting: the result for `O[C@H](CN1c2ccccc2N(Cc2cc(F)cc(C(F)(F)F)c2)C[C@H]1c1cccc(C(F)(F)F)c1)C(F)(F)F` [Example 41, (2R)-1,1,1-trifluoro-3-(4-(3-fluoro-5-(trifluoromethyl)benzyl)-2-(3-(trifluoromethyl)phenyl)-3,4-dihydroquinoxalin-1(2H)-yl)propan-2-ol] reads 45.2 nM; that for `O[C@H](CN1c2ccccc2N(Cc2cccc(Cl)c2)C[C@H]1c1ccccc1)C(F)(F)F` [Example 30, (R)-3-((R)-4-(3-chlorobenzyl)-2-phenyl-3,4-dihydroquinoxalin-1(2H)-yl)-1,1,1-trifluoropropan-2-ol], 1400 nM.

The experiment is the same for the next values; noted with them: Table 2, read-out: IC50 SPA.
For the compound `O[C@H](CN1c2ccccc2N(Cc2cccc(OC(F)F)c2)C[C@H]1c1cccc(C(F)(F)F)c1)C(F)(F)F` [Example 64], the IC50 came out at 16 nM.
Same read-out and setting: to `O[C@H](CN1c2ccccc2N(Cc2ncccc2N2CCOCC2)C[C@H]1c1cccc(C(F)(F)F)c1)C(F)(F)F` [Example 63] belongs 1570 nM.

Staying with this experiment, now noted: read-out: SPA IC50.
Consider `O[C@H](CN1c2ccccc2N(Cc2cccc(OC(F)(F)F)c2)C[C@H]1c1cccc(OC(F)(F)F)c1)C(F)(F)F` [Example 21], for which the 50% inhibitory concentration (IC50) was 19 nM.
Turning to `CNC(=O)c1cccc(C2CN(Cc3cccc(OC(F)(F)F)c3)c3ccccc3N2C[C@@H](O)C(F)(F)F)c1` (stereo partly drawn) [Example 19, N-methyl-3-{1-[(R)-3,3,3-trifluoro-2-hydroxypropyl]-4-[3-(trifluoro-methoxy)benzyl]-1,2,3,4-tetrahydroquinoxalin-2-yl}benzamide], the IC50 came out at 90 nM.
On the same count and under the same terms, the result for `CS(=O)(=O)c1ccc([C@@H]2CN(Cc3cccc(OC(F)(F)F)c3)c3ccccc3N2C[C@@H](O)C(F)(F)F)cc1` [Example 23] reads 96 nM.
With `O[C@H](CN1c2ccccc2N(Cc2cccc(OC(F)(F)F)c2)C[C@H]1c1cccc(OC(F)(F)C(F)F)c1)C(F)(F)F` [Example 18], the 50% inhibitory concentration (IC50) is 15 nM.
Same read-out and setting: the result for `O[C@H](CN1c2ccccc2N(Cc2cccc(OC(F)(F)F)c2)C[C@H]1c1ccc(C(F)(F)F)cc1)C(F)(F)F` [Example 11] reads 4 nM; that for `CN(C)c1ncc([C@@H]2CN(Cc3cccc(OC(F)(F)F)c3)c3ccccc3N2C[C@@H](O)C(F)(F)F)cn1` [Example 27], 30 nM; that for `C[C@H](c1ccccc1)N1C[C@@H](c2cccc(C(F)(F)F)c2)N(C[C@@H](O)C(F)(F)F)c2ccccc21` [Example 15], 14 nM.

By IC50 is commonly meant the concentration needed to halve the response being measured.

These data come from patent US9126976B2 (Merck Sharp & Dohme Corp., priority 2011, dated 2015).
